# Experimental data taken from PMC12250605, “Recombinant Expression and Characterization of a Novel Type I Baeyer–Villiger Monooxygenase from a Streptomyces Strain Isolated from the Rhizosphere of the Atacama Desert Lupinus oreophilus” (International Journal of Molecular Sciences, 2025).
# Tested on: T1, MO-G35A
# T1 construct: full-length, C-terminal His6 tag kept, codon-optimised gene; pET-28a (cytoplasmic) or pET-22b (pelB, periplasmic), E. coli NiCo21(DE3) or Shuffle T7; 73 kDa
# Experiment: NADPH consumption at […] nm, sigmoidal fit
# Format: biochemical, Streptomyces sp. G35A
# Settings: Tris-HCl pH 7.5, 30 °C (methods) or 35 °C (results), allosteric sigmoidal fit
Compound,Km (200 µM NADPH) [µM],Km (5 mM BHC) [µM]
"O=C1CC2C=CCC12 (centres unmarked) [BHC, bicyclo [3.2.0] hept-2-en-6-one]",60,
NC(=O)C1=CN([C@@H]2O[C@H](COP(=O)(O)OP(=O)(O)OC[C@H]3O[C@@H](n4cnc5c(N)ncnc54)[C@H](OP(=O)(O)O)[C@@H]3O)[C@@H](O)[C@H]2O)C=CC1 [NADPH],,23.8
